Consider 15 compounds from US9233933B2, “4,4-disubstituted-1,4-dihydropyrimidines and the use thereof as medicaments for the treatment of hepatitis B” (priority 2012, dated 2016).

A word on the EC50: it is the midpoint of the concentration-response curve.

In series [1] the test system is HBV. Put plainly: anti HBV activity in HepG2.117 cell line (Tet-off, inducibly HBV producing), intracellular HBV DNA by realtime PCR. It counts as cell-based, Hepatitis B virus. The settings on record: Hepatitis B virus, HepG2.117, 72 h, HepG2.117 cells, 3 days of treatment, intracellular HBV DNA; read-out: HepG2 117 EC50.
Series [2] is described as follows: in vitro. The settings on record: human, HepG2 4 days CC50.
Series [3] concerns HBV. The experiment in a line: anti-HBV activity in stable transfected HepG2.2.15 cell line, HBV DNA from secreted virions by realtime PCR. The format is cell-based, Hepatitis B virus. The note with it: HepG2.2.15 cells, 6 days of treatment, secreted virion HBV DNA, read-out: HBV-HepG2 2.15 EC50.
Series [4] is described as follows: Cytotoxicity in HepG2 cells using CellTiter-Blue, same incubation period as HepG2.2.15 assay. It counts as cell-based. The note with it: human, HepG2 6 days CC50. The protocol:
Cytotoxicity of the compounds was tested in HepG2 cells using CellTiter-Blue, with the same incubation period and dose range as in the HepG2.2.15 assay.
In general terms: Resazurin is reduced to fluorescent resorufin, in cell work by metabolically active cells.

Setting [5] is: Hepatitis B virus, HepG2.2.15, 144 h.

In the case of `COC(=O)C1=C(C)NC(c2ncc(F)cc2F)=NC12c1ccccc1OC2(F)F` (single isomer, unassigned) [Compound 106a], the results for the concentration for a half-maximal effect (EC50) in series [1] and in series [3] were > 50 µM and > 100 µM, respectively. Besides, in series [2], the CC50 at 4 days was > 50 µM. Moreover, in series [4], the CC50 at 6 days is > 100 µM.
As to `COC(=O)C1=C(C)NC(c2ncc(F)cc2F)=NC12CC(C)(C)c1ccccc12` (single isomer, unassigned) [Compound 134a], the values for the EC50 in series [1] and in series [3] were > 50 µM and 91.2 µM, respectively. For the same compound, the CC50 at 4 days in series [2] was > 50 µM. This compound also yielded a CC50 at 6 days in series [4] of 53 µM.
In the case of `CCOC(=O)C1=C(CN2CCOCC2)NC(c2ccccn2)=NC12CCc1cc(F)ccc12` (stereo not drawn) [Compound 39], the EC50 came to 0.41 µM in series [1] and 0.405 µM in series [3] (setting [5]). Further, the CC50 at 4 days in series [2] is > 100 µM. The compound also came in with a CC50 at 6 days in series [4] of 62.9 µM.
On the same counts, the results for `CCOC(=O)C1=C(CN2CCOCC2)NC(c2ccccn2)=NC12CCC(C)(C)c1ccccc12` (stereo not drawn) [Compound 56] are 52.6 µM, 35.2 µM, > 100 µM and 36.4 µM.
For `CCOC(=O)C1=C(CN2CCOCC2)NC(c2ccccn2)=NC12CCCc1ccc(F)cc12` (stereo not drawn) [Compound 59], in that order: 46.7 µM, 59.5 µM, > 100 µM and 68.9 µM.
Consider `COC(=O)C1=C(CN2CCOCC2)NC(c2ccccn2)=NC12CCC(C)(C)c1ccccc12` (stereo not drawn) [Compound 72], for which the EC50 was 72 µM in series [1] and 54 µM in series [3] (setting [5]). The CC50 at 4 days in series [2] is > 100 µM. Moreover, in series [4], the CC50 at 6 days amounted to 71.1 µM.
For `COC(=O)C1=C(CN2CCOCC2)NC(c2ccccn2)=NC12CCCc1cc(F)ccc12` (stereo not drawn) [Compound 74], the values for the EC50 in series [1] and in series [3] (setting [5]) were 1.33 µM and 2.06 µM, respectively. Moreover, in series [2], the CC50 at 4 days was > 100 µM. Besides, in series [4], the CC50 at 6 days stood at 78.3 µM.
`COC(=O)C1=C(C)NC(c2ccccn2)=NC12CCOc1ccccc12` (stereo not drawn) [Compound 85]: the values for the EC50 in series [1] and in series [3] (setting [5]) were > 50 µM and > 100 µM, respectively. Besides, the CC50 at 4 days in series [2] was > 50 µM. In addition, the CC50 at 6 days in series [4] is > 100 µM.
As for `COC(=O)C1=C(CN2CCOCC2)NC(c2ccccn2)=NC12CCOc1ccccc12` (stereo not drawn) [Compound 86], the EC50 in series [1] turned out to be 5.49 µM; in series [3] (setting [5]), 8.64 µM. Also, the CC50 at 4 days in series [2] was > 100 µM. For the same compound, the CC50 at 6 days in series [4] was > 100 µM.
As to `COC(=O)C1=C(CN2CCOCC2)NC(c2ccccn2)=NC12CCc1ccccc12` (stereo not drawn) [Compound 89], the results for the EC50 in series [1] and in series [3] (setting [5]) were 0.47 µM and 0.604 µM, respectively. Further, the CC50 at 4 days in series [2] is > 100 µM. The CC50 at 6 days in series [4] is > 100 µM.
`COC(=O)C1=C(C)NC(c2ccccn2)=NC12CCc1ccccc12` (stereo not drawn) [Compound 90]: the EC50 was 22.7 µM in series [1] and 5.82 µM in series [3] (setting [5]). For the same compound, the CC50 at 4 days in series [2] is > 50 µM. Also, the CC50 at 6 days in series [4] was > 50 µM.
Take `COC(=O)C1=C(CN2CCOCC2)NC(c2ncc(F)cc2F)=NC12CC(C)(C)c1ccccc12` (stereo not drawn) [Compound 93]: the 50% effective concentration (EC50) in series [1] stood at 81.2 µM; in series [3] (setting [5]) it was 53.4 µM. Besides, the CC50 at 4 days in series [2] is > 100 µM. This compound came in with a CC50 at 6 days in series [4] of 41.5 µM.
As to `COC(=O)C1=C(CN2CCOCC2)NC(c2ccccn2)=NC12CCc1ccc(F)cc12` (stereo not drawn) [Compound 96], the EC50 in series [1] was 0.94 µM; in series [3] (setting [5]), 0.954 µM. Besides, the CC50 at 4 days in series [2] is 97 µM. Also, in series [4], the CC50 at 6 days is > 100 µM.
On to `COC(=O)C1=C(C)NC(c2ncc(F)cc2F)=NC12CCc1c2ccc(F)c1F` (stereo not drawn) [Compound 100], for which the EC50 was 0.506 µM in series [1] and 0.546 µM in series [3] (setting [5]). Besides, the CC50 at 4 days in series [2] is > 100 µM. In series [4], the CC50 at 6 days is > 100 µM.
In the case of `COC(=O)C1=C(CN2CCOCC2)NC(c2ncc(F)cc2F)=NC12CCc1c2ccc(F)c1F` (stereo not drawn) [Compound 101], the values for the EC50 in series [1] and in series [3] (setting [5]) were 0.073 µM and < 0.098 µM, respectively. Moreover, the CC50 at 4 days in series [2] was > 50 µM. The CC50 at 6 days in series [4] is > 25 µM.
